Here are results for 13 compounds from patent US11180481B2, “Oxopiperazine helix mimetics as inhibitors of the p53-MDM2 interaction” (NEW YORK UNIVERSITY, priority 2014, dated 2021).

Read-outs that look alike come from different tables or passages of the source.

For the experiment, the target named is T1, N-terminal His6-tagged Mdm225-117 (Homo sapiens, UniProt Q00987).
T1 construct: 25-117 fusion protein; made in house; host or cells: E. coli BL21 DE3 pLySS, pET-14B vector
Kind of experiment: Fluorescence polarization competitive binding assay with fluorescein labeled p53 peptide (Flu-p53). The settings on record: for fold decrease in binding affinity: relative to 18 (3-chloro-phenylalanine at R1). Here is the method:
The relative affinities of peptides for N-terminal His6-tagged Mdm225-117 were determined using fluorescence polarization based competitive binding assay with fluorescein labeled p53 peptide, Flu-p53. The polarization experiments were performed with a DTX 880 Multimode Detector (Beckman) at 25° C., with excitation and emission wavelengths at 485 nm and 535 nm, respectively. All samples were prepared in 96 well plates in 0.1% pluronic F-68 (Sigma).
For competition binding experiments, a solution of 250 nM Mdm2 and 15 nM Flu-p53 in buffer (10 mM PBS pH 7.4, 5 mM EDTA, 0.5 mM DTT, 0.1% pluronic F-68) was incubated at 25° C. in a 96 well plate. After 30 minutes, appropriate concentrations of the oxopiperazine (1 nM-100 μM) were added to the Mdm2-Flu-p53 mixture and the resulting mixtures were incubated at 25° C. for 1 hour before measuring the degree of dissociation of Flu-p53 by polarization. The EC50 was fit into equation (2) to calculate the Ki value of the oxopiperazine. Ki=KD1*FSB*((LT/(LST*FSB2−(KD1+LST+RT)*FSB+RT))−1(1−FSB)) (2)
where: • KD=KD of fluorescent probe Flu-p53 • RT=Total concentration of Mdm2 protein • LST=total concentration of p53 fluorescent peptide • FSB=Fraction of bound […] (at EC50) • LT=total concentration of oxopiperazine (EC50)
The binding affinity (KD) values reported for each peptide are the averages of 3-5 individual experiments, and were determined by fitting the experimental data to a sigmoidal dose-response nonlinear regression model on GraphPad Prism 5.0 (Roehrl et al., Biochemistry 43:16056 (2004), which is hereby incorporated by reference in its entirety).
A previously-described fluorescence polarization competition assay with a fluorescein-labeled p53 peptide was utilized to probe the binding affinity of the mimetics (Henchey et al., ChemBiochem 11:2104 (2010); Knight et al., Anal. Biochem. 300:230 (2002), each of which is hereby incorporated by reference in its entirety). […] To examine the effect of the R3 position on the binding properties, a series of compounds was designed in which this position was changed to hydrophobic, anionic, or cationic residues. These studies were performed in the context of the dimers (1-4) as well as oxopiperazine monomers linked to uncyclized dipeptides (see Table 4, supra). […] Importantly, comparisons of dimers 3 (FWLL) and 4 (FWFL) with the monomer-dipeptide sequences 11 and 12 support the hypothesis that cyclization of dipeptides in oxopiperazine rings provides a significant boost to the ability of these helix mimetics to target protein pockets Ramachandran Plots (Ramachandran & Sasisekharan, Adv. Protein Chem. 23:283 (1968), which is hereby incorporated by reference in its entirety) obtained from quantum mechanical calculations further illustrate the flexibility of the uncyclized derivative (FIGS. 9C-D) as compared to the cyclic dimer (FIGS. 9A-B).
(In general: In fluorescence polarisation assays a small probe gives low polarisation when free and higher when bound to something large.)

[1] abbreviates: Table 3, oxopiperazine dimers, competitive fluorescence polarization assay, read-out: Kd (μM), binding affinity for Mdm2.
Setting [2] is: Table 5, restated by sequence, read-out: Experimental Kd.
The mark [3] stands for this setting: Table 6, computationally predicted dimers, competitive fluorescence polarization assay, read-out: Kd (μM), binding affinity for Mdm2.

For `CC(C)C[C@@H](C(=O)O)N1CCN(C(=O)[C@H](Cc2c[nH]c3ccccc23)N2CCN[C@@H](Cc3ccccc3)C2=O)[C@@H](C)C1=O` [Mimetic 1, FWAL-OH], the Kd amounted to 65.4 ± 0.28 µM under setting [1]; 3.1 ± 2.4 µM (oxopiperazine trimers, method not stated, read-out: Kd2); 65 µM (read-out: dissociation constant, Kd).

As for `CC(C)C[C@@H](C(=O)O)N1CCN(C(=O)[C@H](Cc2c[nH]c3ccccc23)N2CCN[C@@H](Cc3ccccc3)C2=O)[C@@H](CCCCN)C1=O` [Mimetic 2, FWKL-OH], the “binding to Mdm2, in words” value was “appreciably lower affinity”.

For `CC(C)C[C@@H](C(N)=O)N1CCN(C(=O)[C@H](Cc2c[nH]c3ccccc23)N2CCN[C@@H](Cc3ccccc3)C2=O)[C@@H](Cc2ccccc2)C1=O` [Mimetic 5, FWFL-NH2], the Kd under setting [1] was 2.88 ± 0.12 µM.

On to `NCCCC[C@@H](C(N)=O)N1CCN(C(=O)[C@H](Cc2c[nH]c3ccccc23)N2CCN[C@@H](Cc3ccccc3)C2=O)[C@@H](Cc2ccccc2)C1=O` [Mimetic 6, FWFK-NH2], for which the “binding to Mdm2, in words” value is on record as “rather poor binder”.

In the case of `CC(C)C[C@@H](C(N)=O)N1CCN(C(=O)[C@H](Cc2c[nH]c3ccccc23)N2CCN[C@@H](CCCCN)C2=O)[C@@H](Cc2ccccc2)C1=O` [Mimetic 7, KWFL-NH2], the “binding to Mdm2, in words” value is recorded as “poor binder”.

Consider `CC(C)C[C@@H](C(N)=O)N1CCN(C(=O)[C@H](C)N2CCN[C@@H](Cc3ccccc3)C2=O)[C@@H](Cc2ccccc2)C1=O` [Mimetic 8, FAFL-NH2], for which, under setting [1], the Kd worked out at 63.9 ± 6.8 µM.

Consider `CCCC[C@@H](C(N)=O)N1CCN(C(=O)[C@H](Cc2c[nH]c3ccccc23)N2CCN[C@@H](Cc3ccccc3)C2=O)[C@@H](Cc2ccccc2)C1=O` [Mimetic 13, FWF(Nle)-NH2], for which the Kd under setting [2] came out at 2.46 µM.

Turning to `CC(C)C[C@@H](C(N)=O)N1CCN(C(=O)[C@H](Cc2c[nH]c3ccccc23)N2CCN[C@@H](Cc3cccc4ccccc34)C2=O)[C@@H](Cc2ccccc2)C1=O` [Mimetic 15, (Nap)WFL-NH2], the Kd under setting [2] was found to be 0.85 µM. For the setting “relative to mimetic 5”, the “fold higher affinity than 5” value was “three-fold higher affinity”.

On to `CC(C)C[C@@H](C(N)=O)N1CCN(C(=O)[C@H](Cc2c[nH]c3ccccc23)N2CCN[C@@H](Cc3ccc(O)cc3)C2=O)[C@@H](Cc2ccccc2)C1=O` [Mimetic 16, YWFL-NH2], for which the Kd was found to be 0.4 µM under setting [2] and 0.4 µM (read-out: ligand for Mdm2 (affinity)).

Turning to `COc1ccc(C[C@@H]2NCCN([C@@H](Cc3c[nH]c4ccccc34)C(=O)N3CCN([C@@H](CC(C)C)C(N)=O)C(=O)[C@@H]3Cc3ccccc3)C2=O)cc1` [Mimetic 17, Y(O—Me)WFL-NH2], the “binding to Mdm2, in words” value is “slightly better than 16”. The Kd under setting [3] was 0.32 ± 0.01 µM.

With `CC(C)C[C@@H](C(N)=O)N1CCN(C(=O)[C@H](Cc2c[nH]c3ccccc23)N2CCN[C@@H](Cc3cccc(Cl)c3)C2=O)[C@@H](Cc2ccccc2)C1=O` [Mimetic 18, F(3-Cl)WFL-NH2], the “binding to Mdm2, in words” value was “slightly better than 16”. For the same compound, the Kd under setting [2] came to 0.33 µM.

Consider `Cc1cccc(C[C@@H]2NCCN([C@@H](Cc3c[nH]c4ccccc34)C(=O)N3CCN([C@@H](CC(C)C)C(N)=O)C(=O)[C@@H]3Cc3ccccc3)C2=O)c1` [Mimetic 19, F(3-Me)WFL-NH2], for which the “fold decrease in binding affinity” value is on record as 8 fold. The Kd under setting [2] was 2.6 µM.

In the case of `CC(C)C[C@@H](C(N)=O)N1CCN(C(=O)[C@H](Cc2c[nH]c3ccccc23)N2CCN[C@@H](Cc3ccc(Cl)cc3)C2=O)[C@@H](Cc2ccccc2)C1=O` [Mimetic 20, F(4-Cl)WFL-NH2], the “fold decrease in binding affinity” value stood at 4 fold. Further, under setting [3], the Kd was 1.29 ± 0.06 µM.
